# Assay results as given in US12239134B2, “Plant antimicrobial compositions including an emulsifier and/or ozone and methods of use” (Arizona Board of Regents on Behalf of The University of …, priority 2018, dated 2025).
# System: Salmonella Newport
# Test: Biofilm formation on food contact surface coupons, direct plating
# Assay type: cell-based, Salmonella enterica
# Conditions: two-minute treatment
# Method: A protocol based on direct plating was also evaluated for testing the biofilm formation by Salmonella or L. monocytogenes. Biofilms were formed on three different food contact surface coupons (HDPE, Buna-N rubber, and 316 stainless steel) for up to 3 days in 35 mm mini-petri dishes. Biofilms were formed using a 1:10 diluted TSB solution (10 mL) with either S. enterica or L. monocytogenes inoculum (100 μL). The diluted TSB was changed every 16-18 hours with new 1:10 diluted TSB (10 mL). Coupons were removed for sampling and enumeration of strongly attached bacteria at three different time points (Day 0, 1, and 3). The coupons were rinsed with deionized water five times to remove planktonic cells. Then the coupons were immersed in 10 mL of BPW. The coupons were sonicated for 2 minutes using different settings (Tables 11 and 12) for each organism. After sonication, the solution was serially diluted and plated on Tryptic Soy Agar (TSA). Plates were incubated at 37° C. for 24-48 hours. The colonies were counted and the colony forming units were determined for the various sonication settings, so that the appropriate setting with the most recovery could be determined. […] These settings were used in further experiments to recover the bacterial cells from coupons during sampling and enumeration (by spread plating) of the bacteria in biofilms.
# The reduction in bacterial biofilm formation was also tested using a direct plating method. Biofilms were formed on six different food contact surface coupons (HDPE, Buna-N rubber, PC, PVC, and stainless steel 304 and 316) in separate 35 mm mini-petri dishes and evaluated at three different time points (Day 0, 1, and 3). Biofilms were formed using a 1:10 diluted TSB solution (10 mL) with either S. enterica or L. monocytogenes inoculum (100 μL). The coupons were also washed and treated with antimicrobial solutions containing the plant-based emulsifier and the essential oil/plant extracts at various concentrations. The diluted TSB was changed every 16-18 hours with new 1:10 diluted TSB (10 mL). The coupons were rinsed in the antimicrobial solution before adding them to the petri dishes containing the fresh, diluted TSB. After their specific time points, coupons were removed aseptically using sterile forceps from the petri dish. The coupons were rinsed by submerging in 25 mL of sterile deionized H2O and swirled five times to remove planktonic cells. After rinsing, they were placed into a new petri dish immersed in 10 mL of BPW. The coupons were sonicated for 2 minutes on ice using different settings for each organism. After sonication, the sonicated solution was serially diluted using 0.1% peptone water and spread plated on TSA in duplicate. Plates were incubated overnight at 37° C. for 24-48 hours, after which, the colonies were counted, to establish the efficacy of the antimicrobial solutions (Tables 17-25).
smiles,measurement,setting,value
"CC(C)=CCCC(C)=CC=O [Citral, citral]",Survivors of Salmonella Newport on food contact surface,"0.5% with 0.0001% saponin microemulsion, Day 0, 304 SS",4.32 Log CFU/mL
same,Survivors of Salmonella Newport on food contact surface,"0.5% with 0.0001% saponin microemulsion, Day 0, 316 SS",4.36 Log CFU/mL
same,Survivors of Salmonella Newport on food contact surface,"0.5% with 0.0001% saponin microemulsion, Day 0, Buna N",4.06 Log CFU/mL
same,Survivors of Salmonella Newport on food contact surface,"0.5% with 0.0001% saponin microemulsion, Day 0, HDPE",3.44 Log CFU/mL
same,Survivors of Salmonella Newport on food contact surface,"0.5% with 0.0001% saponin microemulsion, Day 0, PC",3.25 Log CFU/mL
same,Survivors of Salmonella Newport on food contact surface,"0.5% with 0.0001% saponin microemulsion, Day 0, PVC",3.49 Log CFU/mL
same,Survivors of Salmonella Newport on food contact surface,"0.5% with 0.0001% saponin microemulsion, Day 1, 304 SS",4.52 Log CFU/mL
same,Survivors of Salmonella Newport on food contact surface,"0.5% with 0.0001% saponin microemulsion, Day 1, 316 SS",4.52 Log CFU/mL
same,Survivors of Salmonella Newport on food contact surface,"0.5% with 0.0001% saponin microemulsion, Day 1, Buna N",4.34 Log CFU/mL
same,Survivors of Salmonella Newport on food contact surface,"0.5% with 0.0001% saponin microemulsion, Day 1, HDPE",4.24 Log CFU/mL
same,Survivors of Salmonella Newport on food contact surface,"0.5% with 0.0001% saponin microemulsion, Day 1, PC",4.20 Log CFU/mL
same,Survivors of Salmonella Newport on food contact surface,"0.5% with 0.0001% saponin microemulsion, Day 1, PVC",4.27 Log CFU/mL
same,Survivors of Salmonella Newport on food contact surface,"0.5% with 0.0001% saponin microemulsion, Day 3, 304 SS",4.20 Log CFU/mL
same,Survivors of Salmonella Newport on food contact surface,"0.5% with 0.0001% saponin microemulsion, Day 3, 316 SS",4.36 Log CFU/mL
same,Survivors of Salmonella Newport on food contact surface,"0.5% with 0.0001% saponin microemulsion, Day 3, Buna N",4.20 Log CFU/mL
same,Survivors of Salmonella Newport on food contact surface,"0.5% with 0.0001% saponin microemulsion, Day 3, HDPE",3.56 Log CFU/mL
same,Survivors of Salmonella Newport on food contact surface,"0.5% with 0.0001% saponin microemulsion, Day 3, PC",3.52 Log CFU/mL
same,Survivors of Salmonella Newport on food contact surface,"0.5% with 0.0001% saponin microemulsion, Day 3, PVC",4.27 Log CFU/mL
same,Survivors of Salmonella Newport on food contact surface,"0.7% with 0.0001% saponin microemulsion, Day 0, 304 SS",4.23 Log CFU/mL
same,Survivors of Salmonella Newport on food contact surface,"0.7% with 0.0001% saponin microemulsion, Day 0, 316 SS",3.59 Log CFU/mL
same,Survivors of Salmonella Newport on food contact surface,"0.7% with 0.0001% saponin microemulsion, Day 0, Buna N",4.52 Log CFU/mL
same,Survivors of Salmonella Newport on food contact surface,"0.7% with 0.0001% saponin microemulsion, Day 0, HDPE",2.71 Log CFU/mL
same,Survivors of Salmonella Newport on food contact surface,"0.7% with 0.0001% saponin microemulsion, Day 0, PC",3.59 Log CFU/mL
same,Survivors of Salmonella Newport on food contact surface,"0.7% with 0.0001% saponin microemulsion, Day 0, PVC",3.24 Log CFU/mL
same,Survivors of Salmonella Newport on food contact surface,"0.7% with 0.0001% saponin microemulsion, Day 1, 304 SS",3.36 Log CFU/mL
same,Survivors of Salmonella Newport on food contact surface,"0.7% with 0.0001% saponin microemulsion, Day 1, 316 SS",3.24 Log CFU/mL
same,Survivors of Salmonella Newport on food contact surface,"0.7% with 0.0001% saponin microemulsion, Day 1, Buna N",3.52 Log CFU/mL
same,Survivors of Salmonella Newport on food contact surface,"0.7% with 0.0001% saponin microemulsion, Day 1, HDPE",<1 Log CFU/mL
same,Survivors of Salmonella Newport on food contact surface,"0.7% with 0.0001% saponin microemulsion, Day 1, PC",<1 Log CFU/mL
same,Survivors of Salmonella Newport on food contact surface,"0.7% with 0.0001% saponin microemulsion, Day 1, PVC",<1 Log CFU/mL
same,Survivors of Salmonella Newport on food contact surface,"0.7% with 0.0001% saponin microemulsion, Day 3, 304 SS",<1 Log CFU/mL
same,Survivors of Salmonella Newport on food contact surface,"0.7% with 0.0001% saponin microemulsion, Day 3, 316 SS",<1 Log CFU/mL
same,Survivors of Salmonella Newport on food contact surface,"0.7% with 0.0001% saponin microemulsion, Day 3, Buna N",<1 Log CFU/mL
same,Survivors of Salmonella Newport on food contact surface,"0.7% with 0.0001% saponin microemulsion, Day 3, HDPE",<1 Log CFU/mL
same,Survivors of Salmonella Newport on food contact surface,"0.7% with 0.0001% saponin microemulsion, Day 3, PC",<1 Log CFU/mL
same,Survivors of Salmonella Newport on food contact surface,"0.7% with 0.0001% saponin microemulsion, Day 3, PVC",<1 Log CFU/mL
same,Survivors of Salmonella Newport on food contact surface,"1% with 0.0001% saponin microemulsion, Day 0, 304 SS",3.91 Log CFU/mL
same,Survivors of Salmonella Newport on food contact surface,"1% with 0.0001% saponin microemulsion, Day 0, 316 SS",4.13 Log CFU/mL
same,Survivors of Salmonella Newport on food contact surface,"1% with 0.0001% saponin microemulsion, Day 0, Buna N",3.26 Log CFU/mL
same,Survivors of Salmonella Newport on food contact surface,"1% with 0.0001% saponin microemulsion, Day 0, HDPE",4.45 Log CFU/mL
same,Survivors of Salmonella Newport on food contact surface,"1% with 0.0001% saponin microemulsion, Day 0, PC",4.20 Log CFU/mL
same,Survivors of Salmonella Newport on food contact surface,"1% with 0.0001% saponin microemulsion, Day 0, PVC",3.89 Log CFU/mL
same,Survivors of Salmonella Newport on food contact surface,"1% with 0.0001% saponin microemulsion, Day 1, 304 SS",<1 Log CFU/mL
same,Survivors of Salmonella Newport on food contact surface,"1% with 0.0001% saponin microemulsion, Day 1, 316 SS",<1 Log CFU/mL
same,Survivors of Salmonella Newport on food contact surface,"1% with 0.0001% saponin microemulsion, Day 1, Buna N",<1 Log CFU/mL
same,Survivors of Salmonella Newport on food contact surface,"1% with 0.0001% saponin microemulsion, Day 1, HDPE",<1 Log CFU/mL
same,Survivors of Salmonella Newport on food contact surface,"1% with 0.0001% saponin microemulsion, Day 1, PC",<1 Log CFU/mL
same,Survivors of Salmonella Newport on food contact surface,"1% with 0.0001% saponin microemulsion, Day 1, PVC",<1 Log CFU/mL
same,Survivors of Salmonella Newport on food contact surface,"1% with 0.0001% saponin microemulsion, Day 3, 304 SS",<1 Log CFU/mL
same,Survivors of Salmonella Newport on food contact surface,"1% with 0.0001% saponin microemulsion, Day 3, 316 SS",<1 Log CFU/mL
same,Survivors of Salmonella Newport on food contact surface,"1% with 0.0001% saponin microemulsion, Day 3, Buna N",<1 Log CFU/mL
same,Survivors of Salmonella Newport on food contact surface,"1% with 0.0001% saponin microemulsion, Day 3, HDPE",<1 Log CFU/mL
same,Survivors of Salmonella Newport on food contact surface,"1% with 0.0001% saponin microemulsion, Day 3, PC",<1 Log CFU/mL
same,Survivors of Salmonella Newport on food contact surface,"1% with 0.0001% saponin microemulsion, Day 3, PVC",<1 Log CFU/mL
